Measured values published in article PMC1242219, “Anthracyclines, proteasome activity and multi-drug-resistance” (BMC Cancer, 2005).
Read-outs that look alike come from different tables or passages of the source. Values belong to the molecule of their own block, whether it stands above or below them. Peptide text beside a SMILES is read from it. * marks the point of attachment. Cbz = O=C(OCc1ccccc1)*

Tests used:
P-glycoprotein = target: T1, P-glycoprotein (Homo sapiens, UniProt P08183); test: Drug accumulation assay: daunorubicin fluorescence in P-gp overexpressing KB 8-5 cells; format: cell-based; conditions: different doses of MG-132 (0, 6.25, 12.5, 25, 50 μM), daunorubicin 10 μM, 45 minutes
T1 construct: accumulation of daunorubicin in KB 8-5 cells that overexpress P-glycoprotein; endogenous in cells; host or cells: KB 8.5 (KB 8-5) cells, maintained under colchicine selection
T1 sequence (P08183 whole entry): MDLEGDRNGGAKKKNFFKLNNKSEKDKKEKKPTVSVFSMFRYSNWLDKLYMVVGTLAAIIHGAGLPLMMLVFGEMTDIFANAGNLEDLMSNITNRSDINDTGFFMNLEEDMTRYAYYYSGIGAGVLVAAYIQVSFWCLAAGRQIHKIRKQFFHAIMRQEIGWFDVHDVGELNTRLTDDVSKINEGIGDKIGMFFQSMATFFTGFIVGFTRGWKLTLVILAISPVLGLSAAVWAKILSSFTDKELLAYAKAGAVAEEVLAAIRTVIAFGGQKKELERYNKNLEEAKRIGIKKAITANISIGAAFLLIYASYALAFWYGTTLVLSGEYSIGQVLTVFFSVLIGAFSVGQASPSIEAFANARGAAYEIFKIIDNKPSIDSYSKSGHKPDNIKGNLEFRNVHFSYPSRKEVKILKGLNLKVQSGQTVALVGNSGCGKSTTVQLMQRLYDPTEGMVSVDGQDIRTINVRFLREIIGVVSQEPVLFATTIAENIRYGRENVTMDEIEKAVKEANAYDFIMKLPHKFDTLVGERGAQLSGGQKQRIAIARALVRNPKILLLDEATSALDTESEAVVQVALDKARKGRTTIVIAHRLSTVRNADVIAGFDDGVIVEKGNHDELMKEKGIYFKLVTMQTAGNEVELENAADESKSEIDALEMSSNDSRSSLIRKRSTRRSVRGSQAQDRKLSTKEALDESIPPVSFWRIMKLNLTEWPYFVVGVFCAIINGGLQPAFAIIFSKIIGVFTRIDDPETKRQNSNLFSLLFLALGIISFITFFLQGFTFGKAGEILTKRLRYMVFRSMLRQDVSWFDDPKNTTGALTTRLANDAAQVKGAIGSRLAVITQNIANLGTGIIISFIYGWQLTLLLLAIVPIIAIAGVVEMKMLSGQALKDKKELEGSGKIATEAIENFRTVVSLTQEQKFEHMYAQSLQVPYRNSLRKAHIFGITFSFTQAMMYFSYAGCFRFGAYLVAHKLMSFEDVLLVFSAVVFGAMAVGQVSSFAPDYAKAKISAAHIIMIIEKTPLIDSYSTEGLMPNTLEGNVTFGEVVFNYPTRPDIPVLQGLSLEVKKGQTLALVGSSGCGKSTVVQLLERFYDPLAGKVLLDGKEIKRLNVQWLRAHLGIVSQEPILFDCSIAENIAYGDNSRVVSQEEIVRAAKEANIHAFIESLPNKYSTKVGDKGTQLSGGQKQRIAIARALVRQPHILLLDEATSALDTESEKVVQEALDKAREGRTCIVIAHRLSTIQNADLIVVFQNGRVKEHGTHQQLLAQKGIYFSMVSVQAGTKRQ

ECV304 cells = test: Drug accumulation assay: doxorubicin in cytoplasm and nuclear fraction of ECV304 cells; format: cell-based, human; conditions: MG-132 25 μM
Method: Stock solutions of all cytotoxic drugs were obtained from the hospital pharmacy of the University Clinic Freiburg. […] Control cells were subjected to DMSO treatment alone (0.5 %).
Growth medium on cells was replaced by PBS for 40 minutes at 37°C. This was replaced by fresh PBS containing daunorubicin or doxorubicin and MG-132 or anthracyclines alone. […] After drug treatment, the cells were washed twice with PBS, re-suspended in either 4 ml lysis buffer (0.3 M sucrose, 0.05 mM EGTA pH 8.0, 60 mM KCl, 15 mM NaCl, 15 mM HEPES pH 7.5, 150 μM spermine, 50 μM spermidine) containing 20 μl triton X-100 for nuclear isolation or 400 μl of 50% ethanol in 1 M HCl (v/v) for whole cell lysis. For the latter, cells were vortexed and diluted with water to a final volume of 1.4 ml. The cells in lysis buffer were mixed and left on ice for 15 minutes before centrifuging. The nuclei (pellet) were then vortexed with 400 μl HCl/isopropanol.

KB 8.5 cells = test: Apoptosis / morphological toxicity of KB 8.5 cells treated with MG-132; format: cell-based, human
Source text: The human epitheloid carcinoma cell line KB 8-5 is a well-characterized tumor cell line that over-expresses mdr-1 with associated MDR.

26S proteasome = target: T2, 26S proteasome (Homo sapiens, UniProt P28074); test: Chymotrypsin-like 26S proteasome function in crude cell extracts (SucLLVY-AMC fluorogenic peptide assay); format: biochemical; conditions: for Effect on 26S proteasome function: data not shown; for Chymotryptic 26S Proteasome Activity in Lysates from ECV 304 Cells: activity relative to 0 μM = 1, mean ± SEM
T2 construct: endogenous in cells; host or cells: ECV304 cells, crude extract
T2 sequence (P28074 60-263): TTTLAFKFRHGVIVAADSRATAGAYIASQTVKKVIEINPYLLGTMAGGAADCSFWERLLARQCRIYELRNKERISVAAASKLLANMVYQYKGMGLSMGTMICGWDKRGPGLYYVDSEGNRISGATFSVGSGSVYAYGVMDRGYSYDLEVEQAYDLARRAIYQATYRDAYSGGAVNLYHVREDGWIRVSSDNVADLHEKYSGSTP
Method: (§1) 20S and 26S proteasome function was measured as described previously (20). Briefly, cells were washed with PBS, then with buffer I (50 mM Tris, pH 7.4, 2 mM DTT, 5 mM MgCl2, 2 mM ATP), and pelleted by centrifugation. Glass beads and homogenization buffer (50 mM Tris, pH 7.4, 1 mM DTT, 5 mM MgCl2, 2 mM ATP, 250 mM sucrose) were added and vortexed for 1 minute. Beads and cell debris were removed by centrifugation at 1,000 × g for 5 minutes and 10,000 × g for 20 minutes. Protein concentration was determined by the BCA protocol (Pierce). One hundred μg protein of each sample was diluted with buffer I to a final volume of 1000 μl and the fluorogenic proteasome substrate SucLLVY-7-amido-4-methylcoumarin (chymotrypsin-like, Sigma) was added in a final concentration of 80 μM in 1% DMSO. To access 20S function, buffer I was replaced by an ATP-free buffer containing SDS (20 mM HEPES, pH 7.8; 0.5 mM EDTA, 0.03% SDS). Cleavage activity was monitored continuously by detection of free 7-amido-4-methylcoumarin using a fluorescence plate reader (Gemini, Molecular Devices) at 380/460 nm and 37°C. As controls for drug studies, 7-amido-4-methylcoumarin (AMC, 2 μM) was incubated with drugs in buffer I without cell extracts and measurements of proteasome function were corrected when necessary.

[1] = tested on: proteasome function (Ub-GFP accumulation) in ECV304/10 cells; test: Proteasome function in living ECV304/10 cells stably transfected with Ub-R-GFP fusion protein (fluorescence microscopy); format: cell-based, human; conditions: 100 μM
Method: ECV304 cells were plated at a density of 250.000 cells/well into six-well plates twelve hours before transfection. Cells were transfected with 5 μg of a plasmid (pEGFP-N1, Clontech) coding for an ubiquitin (Ub)-R-GFP fusion protein under control of a CMV promoter (a kind gift from Dr. M. Masucci, Karolinska Institute, Sweden) using the Superfect transfection kit (Qiagen) and following the manufacturer's instructions. Transfected cells were maintained in DMEM (10 % FSC, 1 % penicillin/streptomycin) supplemented with 500 μg/ml G418 (Sigma) and clones were obtained.

20S proteasome = target: T3, 20S proteasome (Homo sapiens, UniProt P28074); test: Chymotrypsin-like 20S proteasome function in crude cell extracts (ATP-free buffer with SDS, SucLLVY-AMC); format: biochemical
T3 construct: Chymotryptic 20S Proteasome Activity in Lysates from ECV 304 Cells; endogenous in cells; host or cells: ECV304 cells, crude extract
T3 sequence (P28074 60-263): T2 sequence (P28074 60-263)
Method: as §1

[2] = 6.25 μM, activity relative to 0 μM = 1, mean ± SEM
[3] = 25 μM, activity relative to 0 μM = 1, mean ± SEM
[4] = 50 μM, activity relative to 0 μM = 1, mean ± SEM
[5] = 100 μM, activity relative to 0 μM = 1, mean ± SEM
[6] = crude extracts of ECV304 cells, 0 – 100 μM drug, read-out: IC50, inhibition of 26S proteasome function

Effect on 26S proteasome function (26S proteasome; crude extracts of ECV304 cells): no measurable effect
SMILES: Nc1ccn([C@@H]2O[C@H](CO)[C@@H](O)C2(F)F)c(=O)n1 [gemcitabine]

Chymotryptic 20S Proteasome Activity in Lysates from ECV 304 Cells (20S proteasome; [2]): 0.67 ± 0.07
Chymotryptic 20S Proteasome Activity in Lysates from ECV 304 Cells (20S proteasome; 12.5 μM, activity relative to 0 μM = 1, mean ± SEM): 0.67 ± 0.08
Chymotryptic 20S Proteasome Activity in Lysates from ECV 304 Cells (20S proteasome; [3]): 0.69 ± 0.05
Chymotryptic 20S Proteasome Activity in Lysates from ECV 304 Cells (20S proteasome; [4]): 0.67 ± 0.05
Chymotryptic 20S Proteasome Activity in Lysates from ECV 304 Cells (20S proteasome; [5]): 0.49 ± 0.11
IC50 (20S proteasome; crude extracts of ECV304 cells): 92 µM
Chymotryptic 26S Proteasome Activity in Lysates from ECV 304 Cells (26S proteasome; 6.25 μM): 0.97 ± 0.03 n.s.
Chymotryptic 26S Proteasome Activity in Lysates from ECV 304 Cells (26S proteasome; 12.5 μM): 0.96 ± 0.02 n.s.
Chymotryptic 26S Proteasome Activity in Lysates from ECV 304 Cells (26S proteasome; 25 μM): 0.79 ± 0.12 n.s.
Chymotryptic 26S Proteasome Activity in Lysates from ECV 304 Cells (26S proteasome; 50 μM): 0.28 ± 0.09
Chymotryptic 26S Proteasome Activity in Lysates from ECV 304 Cells (26S proteasome; 100 μM): 0.1 ± 0.06
IC50 (26S proteasome; [6]): 38.6 µM
SMILES: CC(=O)[C@]1(O)Cc2c(O)c3c(c(O)c2[C@@H](O[C@H]2C[C@H](N)[C@H](O)[C@H](C)O2)C1)C(=O)c1ccccc1C3=O [idarubicin]

Effect on 26S proteasome function (26S proteasome; crude extracts of ECV304 cells): no measurable effect
SMILES: CO[C@@]12[C@H](COC(N)=O)C3=C(C(=O)C(C)=C(N)C3=O)N1C[C@@H]1N[C@@H]12 [mitomycin C]

More lines, now with the values behind:

SMILES: CC(C)C[C@@H](C=O)NC(=O)[C@H](CC(C)C)NC(=O)[C@H](CC(C)C)NC(=O)OCc1ccccc1 [MG-132] (Cbz-Leu-Leu-Leu-aldehyde)
Accumulation of daunorubicin in KB 8-5 cells (P-glycoprotein): increased, dose-dependent accumulation of daunorubicin
Uptake of doxorubicin in the cytoplasm and in the nuclear fraction (ECV304 cells): increased uptake of doxorubicin
Morphological signs of toxicity (KB 8.5 cells; KB 8-5 cells, 50 μM, 45 minutes of incubation): no morphological signs of toxicity
Induction of apoptosis (KB 8.5 cells; KB 8.5 cells, 3.125 to 50 μM, within 24 hours, preliminary experiments): induced apoptosis

SMILES: CC[C@@]1(O)C(=O)OCc2c1cc1n(c2=O)Cc2cc3c(CN(C)C)c(O)ccc3nc2-1 [Topotecan, topotecan]
Effect on 26S proteasome function (26S proteasome; crude extracts of ECV304 cells): no measurable effect

SMILES: COc1cccc2c1C(=O)c1c(O)c3c(c(O)c1C2=O)C[C@@](O)(C(C)=O)C[C@@H]3O[C@H]1C[C@H](N)[C@H](O)[C@H](C)O1 [daunorubicin]
GFP accumulation indicating proteasome inhibition in living cells ([1]; ECV304 Ub-GFP cells, 16 h (Figure 2 legend)): accumulation of GFP throughout the cytoplasm
Chymotryptic 20S Proteasome Activity in Lysates from ECV 304 Cells (20S proteasome): 0.64 ± 0.07 n.s.
Chymotryptic 20S Proteasome Activity in Lysates from ECV 304 Cells (20S proteasome; [2]): 0.62 ± 0.19 n.s.
Chymotryptic 20S Proteasome Activity in Lysates from ECV 304 Cells (20S proteasome; [3]): 0.81 ± 0.05 n.s.
Chymotryptic 20S Proteasome Activity in Lysates from ECV 304 Cells (20S proteasome; [4]): 0.95 ± 0.04 n.s.
Chymotryptic 20S Proteasome Activity in Lysates from ECV 304 Cells (20S proteasome; [5]): 1.05 ± 0.1 n.s.
Inhibition of 20S proteasome function (20S proteasome; crude extracts of ECV304 cells, up to 100 μM): not
Chymotryptic 26S Proteasome Activity in Lysates from ECV 304 Cells (26S proteasome; 6.25 μM): 0.85 ± 0.05
Chymotryptic 26S Proteasome Activity in Lysates from ECV 304 Cells (26S proteasome; 12.5 μM): 0.53 ± 0.11
Chymotryptic 26S Proteasome Activity in Lysates from ECV 304 Cells (26S proteasome; 25 μM): 0.22 ± 0.09
Chymotryptic 26S Proteasome Activity in Lysates from ECV 304 Cells (26S proteasome; 50 μM): 0.12 ± 0.06
Chymotryptic 26S Proteasome Activity in Lysates from ECV 304 Cells (26S proteasome; 100 μM): 0.11 ± 0.06
IC50 (26S proteasome; [6]): 13.7 µM

SMILES: COc1cccc2c1C(=O)c1c(O)c3c(c(O)c1C2=O)C[C@@](O)(C(=O)CO)C[C@@H]3O[C@H]1C[C@H](N)[C@H](O)[C@H](C)O1 [doxorubicin]
GFP accumulation indicating inhibition of proteasome function in living cells ([1]; ECV304/10 cells, 12 hours): GFP accumulated throughout the cytoplasm
IC50 (20S proteasome): 5.8 µM
IC50 (26S proteasome): 65.5 µM

SMILES: COc1cccc2c1C(=O)c1c(O)c3c(c(O)c1C2=O)C[C@@](O)(C(=O)CO)C[C@@H]3O[C@H]1C[C@H](N)[C@@H](O)[C@H](C)O1 [epirubicin]
IC50 (20S proteasome): 12.5 µM
IC50 (26S proteasome): 29.2 µM
